Several values for one entry are separate records, joined by “and”; a condition that tells them apart may be missing. Equal entries are not always repeated. Residues, ends and D or L forms follow the SMILES beside them. *: point of attachment. Palmitoyl = CCCCCCCCCCCCCCCC(=O)*; AEEA = NCCOCCOCC(=O)O
Experiments:
S. Typhimurium = assay: Salmonella Typhimurium gastrointestinal infection in mice; format: in vivo, C57BL/6N mice; set-up: Body weight (% of initial): unit not given here
Method: For S. Typhimurium infections experiments, age- and sex-matched mice between 10 and 14 weeks of age were used. Both- female and male mice were used in experiments. […] Afterward, mice were supplied with water and food ad libitum. 20 h after streptomycin treatment, water and food were withdrawn again, 4 h before the mice were orally infected with 10^5 CFU of S. Typhimurium in 200 μl PBS. Drinking water ad libitum was supplied immediately and food 2 h post infection (p.i.). […] Mice were weighed every day to record potential body-weight loss. All mice were euthanized by asphyxiation with CO2 at indicated time points. Intestinal tissues (small intestine, cecum, colon) were removed aseptically. To collect intestinal content, organs were flushed with PBS. Organs were opened longitudinally, cleaned thoroughly with PBS and weighted. Organs and content were homogenized in PBS using a Polytron homogenizer ([…]).

P. aeruginosa PAO1 = assay: Treatment of established biofilms; format: cell-based; set-up: viable bacteria in biofilm: unit not given here; details: for viable bacteria in biofilm: 24 h old biofilm, 1 h treatment
Method: (§1) Then, planktonic bacteria were removed by two wash steps with PBS. […] Afterward, adherent bacteria in each well were resuspended, and the number of viable bacteria was determined microbiologically. […] The biofilm degradation assay was performed in agreement with the original report describing this method first.

S. aureus ATCC25923 = assay: Treatment of established biofilms; format: cell-based; details: for viable bacteria in biofilm: 24 h old biofilm, 1 h treatment
Method: as §1

[1] = 250 µg orally 6 and 22 h p.i., 48 h after infection, individual animals, N = 12

CCCCCCCCCCCCCCCC(=O)NCCOCCOCC(=O)N[C@@H](CCCNC(=N)N)C(=O)NCC(=O)N[C@@H](CCCCN)C(=O)N[C@@H](C)C(=O)N[C@@H](CCCCN)C(=O)N[C@@H](CS)C(=O)N[C@@H](CS)C(=O)N[C@@H](CCCCN)C(=O)O [Pam-3] ({Palmitoyl-AEEA}-RGKAKCCK-OH; C-terminus assumed)
S. Typhimurium in cecum content (S. Typhimurium; [1]): 101000000 CFU/ml and 19300000 CFU/ml and 209000000 CFU/ml and 369000000 CFU/ml and 338000000 CFU/ml and 343000000 CFU/ml and 185000000 CFU/ml and 11700000 CFU/ml and 392000000 CFU/ml and 49300000 CFU/ml and 19200000 CFU/ml and 26400000 CFU/ml
S. Typhimurium in cecum tissue (S. Typhimurium; [1]): 22792020 CFU/ml and 690476 CFU/ml and 510638 CFU/ml and 1770972 CFU/ml and 4139241 CFU/ml and 2249657 CFU/ml and 543580 CFU/ml and 809249 CFU/ml and 1834320 CFU/ml and 538642 CFU/ml and 466793 CFU/ml and 451429 CFU/ml
S. Typhimurium in small intestine content (S. Typhimurium; [1]): 19170.1 CFU/ml and 3500 CFU/ml and 430000 CFU/ml and 36000 CFU/ml and 2200 CFU/ml and 10400 CFU/ml and 20600 CFU/ml and 69000 CFU/ml and 70112.2 CFU/ml and 111188 CFU/ml and 78651.7 CFU/ml and 1597222 CFU/ml
S. Typhimurium in small intestine tissue (S. Typhimurium; [1]): 6700.17 CFU/ml and 99601.6 CFU/ml and 75335.4 CFU/ml and 1784.12 CFU/ml and 22916.7 CFU/ml and 29579.1 CFU/ml and 9803.92 CFU/ml and 82191.8 CFU/ml and 12841.1 CFU/ml and 8221.99 CFU/ml and 14925.4 CFU/ml and 10101 CFU/ml
Body weight (% of initial) (S. Typhimurium; Day 0 of S. Typhimurium infection, individual animals, N = 12): 100
Body weight (% of initial) (S. Typhimurium; Day 1 of S. Typhimurium infection, 250 µg orally 6 and 22 h p.i., individual animals, N = 12): 94.8627 and 88.6861 and 93.3869 and 93.4108 and 92.7247 and 90.6285 and 93.2755 and 91.8377 and 90.7373 and 93.6733 and 93.6223 and 95.0622
Body weight (% of initial) (S. Typhimurium; Day 2 of S. Typhimurium infection, 250 µg orally 6 and 22 h p.i., individual animals, N = 12): 94.2562 and 87.7476 and 94.3788 and 93.5562 and 89.4912 and 89.5623 and 93.1887 and 92.315 and 87.1434 and 90.8742 and 93.7891 and 93.0505
weight loss during infection (in words) (S. Typhimurium; Fig. 6d): tends to reduce weight loss
CFU of S. Typhimurium in cecum content and tissue vs PBS (in words) (S. Typhimurium; Mann–Whitney p < 0.0001 and p = 0.0409): significantly reduced
bacterial load in small intestine content vs PBS (in words) (S. Typhimurium; Mann–Whitney p = 0.0024): lowered the bacterial load
bacterial load in small intestine tissue vs PBS (in words) (S. Typhimurium; Mann–Whitney p = 0.8621): without affecting
elimination of bacteria in biofilms (in words) (P. aeruginosa PAO1; 300 µM, within 1 h, Kruskal–Wallis p = 0.0074): eliminated
viable bacteria in biofilm (P. aeruginosa PAO1; 9.375 µM Pam-3, experiment 1): 1541667
viable bacteria in biofilm (P. aeruginosa PAO1; 9.375 µM Pam-3, experiment 2): 3730000
viable bacteria in biofilm (P. aeruginosa PAO1; 9.375 µM Pam-3, experiment 3): 2210000
viable bacteria in biofilm (P. aeruginosa PAO1; 18.75 µM Pam-3, experiment 1): 800000
viable bacteria in biofilm (P. aeruginosa PAO1; 18.75 µM Pam-3, experiment 2): 125000
viable bacteria in biofilm (P. aeruginosa PAO1; 18.75 µM Pam-3, experiment 3): 1510000
viable bacteria in biofilm (P. aeruginosa PAO1; 37.5 µM Pam-3, experiment 1): 70000
viable bacteria in biofilm (P. aeruginosa PAO1; 37.5 µM Pam-3, experiment 2): 21111
viable bacteria in biofilm (P. aeruginosa PAO1; 37.5 µM Pam-3, experiment 3): 362889
viable bacteria in biofilm (P. aeruginosa PAO1; 75 µM Pam-3, experiment 1): 1100
viable bacteria in biofilm (P. aeruginosa PAO1; 75 µM Pam-3, experiment 2): 67067
viable bacteria in biofilm (P. aeruginosa PAO1; 75 µM Pam-3, experiment 3): 5525
viable bacteria in biofilm (P. aeruginosa PAO1; 150 µM Pam-3, experiment 1): 333
viable bacteria in biofilm (P. aeruginosa PAO1; 150 µM Pam-3, experiment 2): 433
viable bacteria in biofilm (P. aeruginosa PAO1; 150 µM Pam-3, experiment 3): 167
viable bacteria in biofilm (P. aeruginosa PAO1; 300 µM Pam-3, 1 = no growth, experiment 1): 1
viable bacteria in biofilm (P. aeruginosa PAO1; 300 µM Pam-3, 1 = no growth, experiment 2): 1
viable bacteria in biofilm (P. aeruginosa PAO1; 300 µM Pam-3, 1 = no growth, experiment 3): 1
eradication of bacteria in biofilms (S. aureus ATCC25923; 300 µM, within 1 h, Kruskal–Wallis p = 0.0026): ~ 99.99%
viable bacteria in biofilm (S. aureus ATCC25923; 9.375 µM Pam-3, experiment 1): 43066667 CFU/ml
viable bacteria in biofilm (S. aureus ATCC25923; 9.375 µM Pam-3, experiment 2): 6050000 CFU/ml
viable bacteria in biofilm (S. aureus ATCC25923; 9.375 µM Pam-3, experiment 3): 15666667 CFU/ml
viable bacteria in biofilm (S. aureus ATCC25923; 18.75 µM Pam-3, experiment 1): 32200000 CFU/ml
viable bacteria in biofilm (S. aureus ATCC25923; 18.75 µM Pam-3, experiment 2): 3550000 CFU/ml
viable bacteria in biofilm (S. aureus ATCC25923; 18.75 µM Pam-3, experiment 3): 17250000 CFU/ml
viable bacteria in biofilm (S. aureus ATCC25923; 37.5 µM Pam-3, experiment 1): 27300000 CFU/ml
viable bacteria in biofilm (S. aureus ATCC25923; 37.5 µM Pam-3, experiment 2): 2333333 CFU/ml
